Data on 3 substances can be found in patent publication US20040086999A1, “Mutated-pf-4, its fragments and mutated fusion peptides, their analogues, corresponding dna, cdna and mrna sequences and their use for inhibiting angiognesis” (priority 2000, published 2004).

pIC50: −log10 of the molar value.

In test [1] the test system is VEGF receptors. The experiment in a line: Inhibition of binding of 125I-VEGF to surface receptors on endothelial cells. The settings on record: 125I-VEGF 10 ng/ml, 2 h at 4° C., read-out: I50, inhibition of the binding of VEGF to the high-affinity receptors. The method, then:
The inhibition of the binding of VEGF to the surface receptors (Table 1) is measured in the following manner. VEGF is radiolabeled with ^125I-Na, and 10 ng/ml are incubated with endothelial cells for 2 h at 4° C. The radioactivity bound to the receptors is then determined. The specific binding is estimated by subtracting the nonspecific binding from the total binding (in the presence of a 100-fold excess of cold ligand relative to the hot ligand). The I50 is the concentration which inhibits specific binding by 50%.
(§1) A more detailed description of these measurements of I50 may be found in Jouan et al. and in Perollet et al. cited above.

For test [2], the system named is proteoglycans. Briefly: Inhibition of binding of 125I-FGF-2 to proteoglycans on endothelial cells. The settings on record: 125I-FGF-2 10 ng/ml, 2 h at 4° C., read-out: I50, inhibition of the binding of FGF-2 to proteoglycans. The method, then:
The inhibition of the binding of FGF-2 to the proteoglycans (Table 2) is measured in the following manner. FGF-2 is radiolabeled with ^125I-Na, and 10 ng/ml are incubated with endothelial cells for 2 h at 4° C. The radioactivity bound to the proteoglycans is then determined. The specific binding is estimated by subtracting the nonspecific binding from the total binding (in the presence of a 100-fold excess of cold […] relative to the hot ligand). The I50 is the concentration which inhibits specific binding by 50%.
as §1

The test system of test [3] is FGF-2 high-affinity receptors. Briefly: Inhibition of binding of 125I-FGF-2 to high-affinity receptors on endothelial cells. The settings on record: 125I-FGF-2 10 ng/ml, 2 h at 4° C., read-out: I50, inhibition of the binding of FGF-2 to the high-affinity receptors. How it is done:
The inhibition of the binding of FGF-2 to high-affinity receptors (Table 1) is measured in the following manner. FGF-2 is radiolabeled with ^125I-Na, and 10 ng/ml are incubated with endothelial cells for 2 h at 4° C. The radioactivity bound to high-affinity receptors is then determined. The specific binding is estimated by subtracting the nonspecific binding from the total binding (in the presence of a 100-fold excess of cold ligand relative to the hot ligand). The I50 is the concentration which inhibits specific binding by 50%.
as §1

Test [4] has as its system proliferation induced by FGF-2. Briefly: Inhibition of the biological activity of FGF-2 (FGF-2-induced cell proliferation, cell count). Format: cell-based. Conditions: 20 000 cells, 10 ng/ml FGF-2, DMEM 1% FCS, counted on day 6; read-out: I50, inhibition of cell proliferation. The method, then: The inhibition of the biological activity of FGF-2 (Table 3) is measured in the following manner: 20 000 cells are incubated with 10 ng/ml of FGF-2 in DMEM medium containing 1% fetal calf serum (FCS) in dishes 3.5 cm in diameter in the presence or in the absence of peptide. The cells are counted on the 6 day using a Coulter counter. The experiments are carried out in duplicate. The I50 is the concentration which inhibits the proliferation induced by FGF-2 by 50%.
as §1

The subject of test [5] is angiogenesis. Briefly: Inhibitory activity tests of the fusion peptide (method not described). The settings on record: test not specified.

Consider “Peptide 47-70 DLQ: nonmutated PF-4 fragment 47-70, control peptide used as comparative example (NGRKICLDLQAPLYKKIIKKLLES; Platelet factor 4; UniProt P02776 78-101, looked up, fragment) [reference compound]”, for which the pIC50 is 5.82 in test [1], 5.46 in test [2], 5.82 in test [3] and 5.55 in test [4].

For “Peptide 47-70 DLR: PF-4 fragment 47-70 with glutamine in position 56 replaced by arginine (SEQ. ID. No:3) (NGRKICLDLRAPLYKKIIKKLLES; SEQ ID NO. 3 is the 47-70 fragment of mutated PF-4 SEQ ID. NO. 2)”, the pIC50 in test [1] is 6.52; in test [2], 6.22; in test [3] it was 6.52; in test [4], 6.40.

As to “fusion peptide 17-34/47-70: fusion peptide 17-34/47-70 derived from PF-4; the mutated form is SEQ. ID. No:4 (SQVRPRHITSLEVIKAGPNGRKICLDLRAPLYKKIIKKLLES; SEQ ID NO. 4 is the 17-34/47-70 fragment of mutated PF-4 SEQ. ID NO. 2.) [fusion peptide 17-34/47-70 derived from PF-4; ID; No:4]”, the “Inhibitory activity compared with native PF-4 or fragment 47-70” value in test [5] is “inhibitory activity greater than that of native PF-4 or of fragment 47-70”.
